Literature values, collected in patent US20240115591A1, “THERAPEUTIC METHODS AND COMPOSITIONS FOR TREATING BILIARY TRACT CANCER USING DEVIMISTAT” (Cornerstone Pharmaceuticals, Inc., priority 2020, published 2024).

Tests used:
[1] = tested on: locally advanced or metastatic BTC; conditions: for OS (overall survival): 410 patients with locally advanced or metastatic BTC, phase III ABC-02
[2] = ABC-02, patients with advanced BTC

Compound | OS (overall survival) [1] | objective response rate ([1]; ABC-02, combination arm) | hazard ratio (HR) for OS ([1]; gemcitabine cisplatin arm versus gemcitabine alone arm, 95% CI 0.52 to 0.80, p<0.001) | historical ORR (CR+PR) ([1]; historical estimate from Valle et al. 2010, used as null hypothesis for the planned phase 2) | grade 3 and 4 adverse event: abnormal liver function [2] | grade 3 and 4 adverse event: anemia [2] | grade 3 and 4 adverse event: deep vein thrombosis [2] | grade 3 and 4 adverse event: fatigue [2] | grade 3 and 4 adverse event: impaired renal function [2] | grade 3 and 4 adverse event: nausea [2] | grade 3 and 4 adverse event: neutropenia [2] | grade 3 and 4 adverse event: thrombocytopenia [2] | grade 3 and 4 adverse event: thromboembolic event [2] | grade 3 and 4 adverse event: vomiting [2] | grade 3 and 4 adverse event: infection (in vivo)
Nc1ccn([C@@H]2O[C@H](CO)[C@@H](O)C2(F)F)c(=O)n1 [gemcitabine, 2′-deoxy-2′,2′-difluorocytidine (β-isomer)] | 8.1 months | – | – | – | – | – | – | – | – | – | – | – | – | – | –
gemcitabine cisplatin | 11.7 months | 26.1% | 0.64 | 25% | 16.7% | 7.6% | 2% | 18.7% | 1.5% | 4% | 25.3% | 15.7% | 3.5% | 5.1% | 18.2%
